Results on 20 compounds are retold here after US9464064B2, “HCV helicase inhibitors and methods of use thereof” (University of Kansas, priority 2011, dated 2016).

Structures are written as SMILES. Where two headings read alike, the source gives them in different places.

In general, IC50 refers to the concentration that gives 50% inhibition.

In one test the target is T1, NS3h_2a(JFH1) (Hepatitis C virus genotype 2a, UniProt Q99IB8).
T1 construct: truncated C-terminally His-tagged NS3 proteins lacking the N-terminal protease, called NS3h; His-tag (C); made in house
T1 sequence (Q99IB8 1196-1661): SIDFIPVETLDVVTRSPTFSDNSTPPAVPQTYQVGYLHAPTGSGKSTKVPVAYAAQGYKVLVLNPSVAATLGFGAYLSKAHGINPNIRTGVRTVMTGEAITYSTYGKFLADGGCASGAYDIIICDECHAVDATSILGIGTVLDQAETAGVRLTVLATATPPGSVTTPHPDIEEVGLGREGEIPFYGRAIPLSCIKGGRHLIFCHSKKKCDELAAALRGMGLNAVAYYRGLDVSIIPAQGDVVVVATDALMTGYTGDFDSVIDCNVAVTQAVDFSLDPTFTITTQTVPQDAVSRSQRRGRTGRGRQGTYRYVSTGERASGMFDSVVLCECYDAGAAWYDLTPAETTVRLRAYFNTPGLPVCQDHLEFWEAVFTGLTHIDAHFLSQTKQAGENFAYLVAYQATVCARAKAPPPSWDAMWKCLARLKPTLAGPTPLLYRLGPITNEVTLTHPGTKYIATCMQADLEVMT
Briefly: MBHA, DNA substrate, genotype 2a helicase. It counts as biochemical, hepatitis C virus genotype 2a(JFH1). Summed up:
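Inhibition of DNA unwinding by C-terminally His-tagged recombinant NS3 helicase domain (no protease) from HCV genotype 2a JFH1 strain, measured by molecular beacon-based helicase assay (MBHA).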

The subject of test [1] is HCV RLuc subgenomic replicon (genotype 1b) in Huh-7.5 cells. Briefly: HCV subgenomic replicon assay (Renilla luciferase). As to conditions: for inhibition at 10 µM: Hepatitis C virus. Type of test: cell-based, hepatitis C virus. Summed up: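 Huh-7.5 cells stably harbouring the genotype 1b HCV RLuc subgenomic replicon were treated with compound at 10 μM final (0.5% DMSO) for 72 h at 37 °C. Replication was assessed as Renilla luciferase activity in lysates relative to DMSO-treated cells.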
(In general: A replicon is a self-replicating genome or part of one, used to study replication in cells.)

[2] abbreviates: genotype 2a (JFH1), read-out: Target Potency MBHA (IC50 avg., μM) 2a (JFH1) (converted).
Where [3] appears, read: Huh7.5, 10 μM compound, triplicate, average ± SD, read-out: HCV replication (% Inh.).
Where [4] appears, read: Huh7.5, 10 μM, read-out: Replicon (% Inhibition @ 10 μM).
The mark [5] stands for this setting: DNA-based MBHA, genotype 2a(JFH1), read-out: DNA Helicase NS3h_2a IC50 (μM) ± SD.

Take `Cc1ccc2nc(-c3ccc4nc(-c5ccc(N(C)C(=O)c6ccc7ccccc7c6)cc5)sc4c3)sc2c1S(=O)(=O)O` [Compound 34, 6-methyl-2′-(4-(N-methyl-2-naphthamido)phenyl)-[2,6′-bibenzo[d]thiazole]-7-sulfonic acid]: the half-maximal inhibitory concentration (IC50) at NS3h_2a(JFH1) (setting [2]) was 13.5 µM. The inhibition at 10 µM was -30 ± 30% in test [1] (setting [3]) and 24 ± 32% in test [1] (setting [4]).
Consider `Cc1ccc2nc(-c3ccc4nc(-c5ccc(NC(=O)c6ccc7nc(-c8ccc(N)cc8)sc7c6)cc5)sc4c3)sc2c1S(=O)(=O)O` [Compound 35, 2′-(4-(2-(4-aminophenyl)benzo[d]thiazole-6-carboxamido)phenyl)-6-methyl-[2,6′-bibenzo[d]thiazole]-7-sulfonic acid], for which the IC50 at NS3h_2a(JFH1) (setting [5]) is 3 ± 1.2 µM; on NS3h_2a(JFH1) (setting [2]), 3.5 µM. The inhibition at 10 µM in test [1] (setting [3]) and in test [1] (setting [4]) was 37 ± 4% each time.
As to `Cc1ccc2nc(-c3ccc4nc(-c5ccc(NC(=O)c6ccc7nc(-c8ccc(NC(=O)OCC9c%10ccccc%10-c%10ccccc%109)cc8)sc7c6)cc5)sc4c3)sc2c1S(=O)(=O)O.N` [Compound 36], the 50% inhibitory concentration (IC50) at NS3h_2a(JFH1) (setting [2]) is 1.9 µM. The inhibition at 10 µM in test [1] (setting [3]) worked out at 42 ± 5%; in test [1] (setting [4]) it was 44 ± 9%.
Regarding `Cc1ccc2nc(-c3ccc(NC(=O)c4ccc(NC(=O)c5ccccc5)cc4)cc3)sc2c1S(=O)(=O)O.N` [Compound 40], the IC50 on NS3h_2a(JFH1) (setting [2]) was 79.2 µM. For the same compound, in test [1] (setting [4]), the inhibition at 10 µM was -19 ± 42%.
Turning to `Cc1ccc2nc(-c3ccc4nc(-c5ccc(NC(=O)c6ccc(CNC(=O)OCC7c8ccccc8-c8ccccc87)cc6)cc5)sc4c3)sc2c1S(=O)(=O)O.N` [Compound 41], at NS3h_2a(JFH1) (setting [2]), the IC50 was 4.6 µM. Besides, in test [1] (setting [4]), the inhibition at 10 µM is 48 ± 18%.
On to `Cc1ccc2nc(-c3ccc(NC(=O)c4ccc(NC(=O)OCC5c6ccccc6-c6ccccc65)cc4)cc3)sc2c1S(=O)(=O)O.N` [Compound 42], for which, on NS3h_2a(JFH1) (setting [2]), the IC50 is 12 µM. Moreover, in test [1] (setting [4]), the inhibition at 10 µM came to 31 ± 10%.
The corresponding values for `Cc1ccc2nc(-c3ccc(NC(=O)c4ccc(NC(=S)Nc5ccccc5)cc4)cc3)sc2c1S(=O)(=O)O.N` [Compound 43] are 29 µM and -13 ± 2%.
Regarding `Cc1ccc2nc(-c3ccc(NC(=O)c4ccc(NC(=O)c5ccc(C(F)(F)F)cc5)cc4)cc3)sc2c1S(=O)(=O)O.N` [Compound 44], on NS3h_2a(JFH1) (setting [2]), the IC50 was 14.7 µM. For the same compound, the inhibition at 10 µM in test [1] (setting [4]) stood at 4 ± 8%.
The corresponding values for `Cc1ccc2nc(-c3ccc(NC(=O)c4ccc(NC(=O)Nc5ccccc5)cc4)cc3)sc2c1S(=O)(=O)O.N` [Compound 45] are 32 µM and -64 ± 90%.
The corresponding values for `Cc1ccc2nc(-c3ccc(NC(=O)c4ccc(NC(=O)c5ccc(N)cc5)cc4)cc3)sc2c1S(=O)(=O)O.N` [Compound 46] are 26 µM and -42 ± 26%.
The corresponding values for `Cc1ccc2nc(-c3ccc4nc(-c5ccc(NC(=O)Nc6ccc(C(F)(F)F)cc6)cc5)sc4c3)sc2c1S(=O)(=O)O.N` [Compound 47] are 4 µM and 7 ± 39%.
Take `Cc1ccc2nc(-c3ccc4nc(-c5ccc(NC(=O)Nc6ccc(F)cc6)cc5)sc4c3)sc2c1S(=O)(=O)O.N` [Compound 48]: the IC50 on NS3h_2a(JFH1) (setting [2]) is 9.9 µM. In addition, the inhibition at 10 µM in test [1] (setting [4]) stood at 17 ± 25%.
Turning to `Cc1ccc2nc(-c3ccc4nc(-c5ccc(NC(=O)c6cccc7ccccc67)cc5)sc4c3)sc2c1S(=O)(=O)O.N` [Compound 49], on NS3h_2a(JFH1) (setting [2]), the IC50 was 3.9 µM. Further, the inhibition at 10 µM in test [1] (setting [4]) is -9 ± 8%.
The corresponding values for `Cc1ccc2nc(-c3ccc4nc(-c5ccc(NC(=S)Nc6ccccc6)cc5)sc4c3)sc2c1S(=O)(=O)O.N` [Compound 50] are 9.6 µM and 9 ± 9%.
The corresponding values for `Cc1ccc2nc(-c3ccc(NC(=O)c4ccc(NC(=O)c5ccc(NC(=O)OCC6c7ccccc7-c7ccccc76)cc5)cc4)cc3)sc2c1S(=O)(=O)O.N` [Compound 51] are 1.9 µM and -14 ± 26%.
The corresponding values for `Cc1ccc2nc(-c3ccc4nc(-c5ccc(NC(=O)Nc6ccccc6)cc5)sc4c3)sc2c1S(=O)(=O)O.N` [Compound 52] are 6 µM and -18 ± 56%.
As to `Cc1ccc2nc(-c3ccc4nc(-c5ccc(NCc6ccccc6)cc5)sc4c3)sc2c1S(=O)(=O)O` [Compound 53], the 50% inhibitory concentration (IC50) at NS3h_2a(JFH1) (setting [2]) is 13.5 µM. Besides, in test [1] (setting [4]), the inhibition at 10 µM was -64 ± 25%.
In the case of `Cc1ccc2nc(-c3ccc4nc(-c5ccc(NC(=O)Nc6ccc(Cl)cc6)cc5)sc4c3)sc2c1S(=O)(=O)O` [Compound 54], on NS3h_2a(JFH1) (setting [2]), the IC50 was 4.4 µM. In addition, the inhibition at 10 µM in test [1] (setting [4]) is 35 ± 28%.
Turning to `COc1ccc(NC(=O)Nc2ccc(-c3nc4ccc(-c5nc6ccc(C)c(S(=O)(=O)O)c6s5)cc4s3)cc2)cc1` [Compound 55], the IC50 on NS3h_2a(JFH1) (setting [2]) was 6.4 µM. For the same compound, the inhibition at 10 µM in test [1] (setting [4]) stood at 21 ± 10%.
Turning to `Cc1ccc2nc(-c3ccc4nc(-c5ccc6nc(-c7ccc8nc(-c9ccc(N)cc9)sc8c7)sc6c5)sc4c3)sc2c1S(=O)(=O)O` [Compound P4, 2′″-(4-aminophenyl)-6-methyl-[2,6′:2″,6′″-quaterbenzo[d]thiazole]-7-sulfonic acid], the half-maximal inhibitory concentration (IC50) at NS3h_2a(JFH1) (setting [5]) is 1 ± 0.3 µM. Also, in test [1] (10 μM), the “ability to decrease the amount of HCV RNA present in the cultures” value is listed as “showed any ability to decrease the amount of HCV RNA present in the cultures”.
